Test results reported in patent US6737383B1, “Herbicidal oxadiazolidines” (priority 1999, dated 2004).

What was measured:
giant foxtail = assay: Test C postemergence giant foxtail; type: in vivo, Setaria faberii; conditions: 0 to 100 scale, 0 no effect, 100 complete control
In short: (§1)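 Compounds in a non-phytotoxic solvent with surfactant were sprayed postemergence on greenhouse-grown plants in 60:40 sandy loam/potting mix. After about 14 to 21 days, visual ratings against untreated controls on a 0 (no effect) to 100 (complete control) scale.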

barnyardgrass = assay: Test C postemergence barnyardgrass; type: in vivo, Echinochloa crus-galli; conditions: 0 to 100 scale, 0 no effect, 100 complete control
In short: as §1

soybean = assay: Test C postemergence soybean; type: in vivo, Glycine max; conditions: 0 to 100 scale, 0 no effect, 100 complete control
In short: as §1

cocklebur = assay: Test C postemergence cocklebur; type: in vivo, Xanthium strumarium; conditions: 0 to 100 scale, 0 no effect, 100 complete control
In short: as §1

wild poinsettia = assay: Test C postemergence wild poinsettia; type: in vivo, Euphorbia heterophylla; conditions: 0 to 100 scale, 0 no effect, 100 complete control
In short: as §1

ladysthumb smartweed = assay: Test C postemergence ladysthumb smartweed; type: in vivo, Polygonum persicaria; conditions: 0 to 100 scale, 0 no effect, 100 complete control
In short: as §1

surinam grass = assay: Test C postemergence surinam grass; type: in vivo, Brachiaria decumbens; conditions: 0 to 100 scale, 0 no effect, 100 complete control
In short: as §1

large crabgrass = assay: Test C postemergence large crabgrass; type: in vivo, Digitaria sanguinalis; conditions: 0 to 100 scale, 0 no effect, 100 complete control
In short: as §1

cotton = assay: Test C postemergence cotton; type: in vivo, Gossypium hirsutum; conditions: 0 to 100 scale, 0 no effect, 100 complete control
In short: as §1

Green foxtail = assay: Test D green foxtail; type: in vivo; conditions: Preemergence, 0 to 100 scale
In short: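 Scoring used a 0–100 visual injury scale, with 0 meaning no effect and 100 complete control, assessed 14–21 days after application alongside untreated pots. Preemergence treatments went onto sandy loam surfaces of separately potted seeds within a day of sowing.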

purple nutsedge = assay: Test C postemergence purple nutsedge; type: in vivo, Cyperus rotundus; conditions: 0 to 100 scale, 0 no effect, 100 complete control
In short: as §1

ivyleaf morningglory = assay: Test C postemergence ivyleaf morningglory; type: in vivo, Ipomoea hederacea; conditions: 0 to 100 scale, 0 no effect, 100 complete control
In short: as §1

corn = assay: Test C postemergence corn; type: in vivo, Zea mays; conditions: 0 to 100 scale, 0 no effect, 100 complete control
In short: as §1

CC(C)N(C(=O)n1oc(=O)n(C(C)C)c1=O)c1ccc(F)cc1F [Compound 109]
Plant response rating, Giant foxtail (giant foxtail; Rate 140 g/ha): 50
Plant response rating, Giant foxtail (giant foxtail; Rate 280 g/ha): 80
Plant response rating, Giant foxtail (giant foxtail; Rate 560 g/ha): 80
Plant response rating, Giant foxtail (giant foxtail; Rate 1120 g/ha): 85
Plant response rating, Barnyardgrass (barnyardgrass; Rate 140 g/ha): 60
Plant response rating, Barnyardgrass (barnyardgrass; Rate 280 g/ha): 85
Plant response rating, Barnyardgrass (barnyardgrass; Rate 560 g/ha): 85
Plant response rating, Barnyardgrass (barnyardgrass; Rate 1120 g/ha): 95
Plant response rating, Soybean (soybean; Rate 140 g/ha): 35
Plant response rating, Soybean (soybean; Rate 280 g/ha): 70
Plant response rating, Soybean (soybean; Rate 560 g/ha): 85
Plant response rating, Soybean (soybean; Rate 1120 g/ha): 85
Plant response rating, Cocklebur (cocklebur; Rate 140 g/ha): 30
Plant response rating, Cocklebur (cocklebur; Rate 280 g/ha): 30
Plant response rating, Cocklebur (cocklebur; Rate 560 g/ha): 60
Plant response rating Wild poinsettia (wild poinsettia; Rate 140 g/ha): 10
Plant response rating Wild poinsettia (wild poinsettia; Rate 280 g/ha): 30
Plant response rating Wild poinsettia (wild poinsettia; Rate 560 g/ha): 50
Plant response rating Wild poinsettia (wild poinsettia; Rate 1120 g/ha): 90
Plant response rating Ladysthumb (ladysthumb smartweed; Rate 280 g/ha): 10
Plant response rating Ladysthumb (ladysthumb smartweed; Rate 560 g/ha): 30
Plant response rating Ladysthumb (ladysthumb smartweed; Rate 1120 g/ha): 95
Plant response rating Surinam grass (surinam grass; Rate 140 g/ha): 0
Plant response rating Surinam grass (surinam grass; Rate 280 g/ha): 5
Plant response rating Surinam grass (surinam grass; Rate 560 g/ha): 50
Plant response rating Surinam grass (surinam grass; Rate 1120 g/ha): 95
Plant response rating Large crabgrass (large crabgrass; Rate 140 g/ha): 10
Plant response rating Large crabgrass (large crabgrass; Rate 280 g/ha): 60
Plant response rating Large crabgrass (large crabgrass; Rate 560 g/ha): 90
Plant response rating Large crabgrass (large crabgrass; Rate 1120 g/ha): 90
Plant response rating Cotton (cotton; Rate 140 g/ha): 10
Plant response rating Cotton (cotton; Rate 280 g/ha): 50
Plant response rating Cotton (cotton; Rate 560 g/ha): 70
Plant response rating Cotton (cotton; Rate 1120 g/ha): 70
Plant response rating, Green foxtail (Green foxtail; Rate 250 g/ha): 100
Plant response rating, Green foxtail (Green foxtail; Rate 500 g/ha): 100
Plant response rating, Purple nutsedge (purple nutsedge; Rate 140 g/ha): 0
Plant response rating, Purple nutsedge (purple nutsedge; Rate 280 g/ha): 0
Plant response rating, Purple nutsedge (purple nutsedge; Rate 560 g/ha): 0
Plant response rating, Purple nutsedge (purple nutsedge; Rate 1120 g/ha): 0
Plant response rating I. morningglory (ivyleaf morningglory; Rate 140 g/ha): 0
Plant response rating I. morningglory (ivyleaf morningglory; Rate 280 g/ha): 50
Plant response rating I. morningglory (ivyleaf morningglory; Rate 560 g/ha): 50
Plant response rating I. morningglory (ivyleaf morningglory; Rate 1120 g/ha): 70
Plant response rating, Corn (corn; Rate 140 g/ha): 0
Plant response rating, Corn (corn; Rate 280 g/ha): 0
Plant response rating, Corn (corn; Rate 560 g/ha): 5
Plant response rating, Corn (corn; Rate 1120 g/ha): 55
